Values after ≈ are worked out from the molar mass of the structure shown. Values joined by “and” are separate entries in the source; they are usually repeats but may differ in a detail not shown here. Equal entries are not always repeated. Structures can show the parent of a compound that is named as a salt.
How the values were obtained:
[1] = system: NA activity; format: biochemical
[2] = system: influenza A PR8 virus; format: cell-based, Influenza A/Puerto Rico/8/34 (H1N1)
[3] = system: NMRI mice; details: mouse, in vivo; cited from earlier work
[4] = system: influenza A strains PR8, NY or NC; format: cell-based
[5] = system: hamsters; details: hamster, in vivo; cited from earlier work
[6] = molecular target: recombinant N4 protein (Influenza A virus, UniProt Q6XV43); assay: biochemical
[7] = system: influenza A PR8 virus; format: cell-based, Influenza A/Puerto Rico/8/34 (H1N1); remark: listed apart in the source
[8] = in vitro; details: pH 7.2
[9] = system: mice; details: mouse, in vivo; cited from earlier work
[10] = system: influenza A or B viruses; format: cell-based
[11] = system: influenza A and B viruses; format: cell-based
[12] = molecular target: NA from influenza NC virus (Influenza A virus, UniProt Q7TG96); format: biochemical; details: read-out: IC50 NA activity
[13] = system: influenza A NY virus; format: cell-based
[14] = system: influenza A NC virus; format: cell-based
[15] = system: influenza A PR8 virus; format: cell-based, Influenza A/Puerto Rico/8/34 (H1N1); remark: listed apart in the source
[16] = system: influenza A PR8 virus; format: cell-based
[17] = system: influenza A PR8 virus; assay: microbe, parasite or virus in culture; format: cell-based; details: PR8, MDCK, 48 h, read-out: minimum effective dose required to protect 50% of cells (EC50)

## NC12CC3CC(CC(C3)C1)C2 [AH, amantadine hydrochloride]
[1]
  inhibition of NA activity: no inhibition
[2]
  Virus yield, Cells: 4.7×10^5 PFU/ml
  Virus yield, Medium: 3×10^5 PFU/ml

## O=C(O)C1=CC(=C(c2ccc(O)c(C(=O)O)c2)c2ccc(O)c(C(=O)O)c2)C=CC1=O [ATA, Aurintricarboxylic acid]
[3]
  LD50: 340 mg/kg
  median life span: 18 days
[4]
  protection from virus-induced CPE, prophylactic exposure: did not protect cells from virus-induced CPE
  protection of infected MDCK cells (neutral red uptake): significantly protected MDCK cells from influenza infection
[5]
  well tolerated infusion dose: up to 1 mg/kg/hour
[6]
  IC50: 2.37 µM
[7]
  viral NP RNA level: substantial reduction in viral NP RNA
[8]
  CC50 at 48 h: 577 µg/mL (≈ 1370 µM)
[9]
  single dose tolerated well: ≤ 4 mg/kg
[10]
  number and size of plaques: reduced both the number and size of plaques
[11]
  plaques after pre-incubation of virus with ATA: reduced the number of plaques
[12]
  IC50: 39.3 µM
[13]
  reduction of virus abundance in medium: 72% and 81%
[14]
  reduction of virus abundance in medium: 86% and 94%
[15]
  viral aggregation by electron microscopy: induce viral aggregation on the cell surface
[2]
  Virus yield, Cells: 5×10^4 PFU/ml
  Virus yield, Medium: 1.3×10^4 PFU/ml
  magnitude of inhibition, production of infectious viral particles: at least 3 logs
[16]
  reduction of virus abundance in medium: 93% and 95%
[17]
  EC50: 6.5 µg/mL (≈ 15.4 µM)

## N-acetyl-2,3-dehydro-2-deoxyneuraminic acid [NAA]
[1]
  inhibition of NA activity: inhibited NA activity with very low IC50 values
[2]
  Virus yield, Cells: 6.2×10^6 PFU/ml
  Virus yield, Medium: 4.7×10^6 PFU/ml
